Measurements reported in US9783505B2, “Substituted diaminopyrimidyl compounds, compositions thereof, and methods of treatment therewith” (Signal Pharmaceuticals, LLC, priority 2013, dated 2017).

What follows are molecules tested against T1, His-PKC-theta (Homo sapiens, UniProt Q04759) (assay: PKC-theta Assay (384-well time resolved fluorescence, IMAP TR-FRET)). Details: Table 2; read-out: Act. Level (IC50 in the PKC-theta Assay).
T1 construct: His; purchased Invitrogen
Assay type: biochemical
Procedure, shortened: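 Enzyme at 142 pM phosphorylated 200 nM Fam-S6 peptide with 10 μM ATP in 50 mM HEPES pH 7.6, 10 mM MgCl2, 1 mM DTT for 2 h at room temperature. Product was detected after overnight incubation with IMAP binding reagent and Tb donor by time-resolved FRET.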

T1 sequence (Q04759 whole entry): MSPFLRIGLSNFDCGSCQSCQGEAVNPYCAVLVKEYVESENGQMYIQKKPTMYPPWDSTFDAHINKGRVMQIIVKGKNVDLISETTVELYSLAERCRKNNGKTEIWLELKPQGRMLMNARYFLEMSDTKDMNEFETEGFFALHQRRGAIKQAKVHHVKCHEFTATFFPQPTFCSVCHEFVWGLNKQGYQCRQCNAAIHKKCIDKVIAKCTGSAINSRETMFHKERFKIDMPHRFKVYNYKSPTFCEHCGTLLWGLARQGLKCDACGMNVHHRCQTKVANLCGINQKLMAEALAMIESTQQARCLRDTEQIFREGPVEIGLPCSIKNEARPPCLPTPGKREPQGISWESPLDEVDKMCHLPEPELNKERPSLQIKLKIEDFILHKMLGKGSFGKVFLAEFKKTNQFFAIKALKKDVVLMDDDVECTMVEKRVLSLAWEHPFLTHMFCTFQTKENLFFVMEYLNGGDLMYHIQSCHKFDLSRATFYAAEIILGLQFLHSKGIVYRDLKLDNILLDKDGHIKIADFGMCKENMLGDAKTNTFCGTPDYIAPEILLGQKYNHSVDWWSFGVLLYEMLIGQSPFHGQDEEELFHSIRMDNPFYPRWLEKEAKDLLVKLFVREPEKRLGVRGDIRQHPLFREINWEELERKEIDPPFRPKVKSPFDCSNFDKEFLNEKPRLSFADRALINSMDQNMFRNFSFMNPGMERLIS

Row | SMILES | IC50
1 | CC1(C)[C@@H](O)C[C@H]1Nc1nc(NCCc2ccc(C#N)c(F)c2)ncc1C#N [Cmpd 147] | 100 to 800 nM
2 | CC1(C)[C@@H](C(N)=O)C[C@H]1Nc1nc(NCCc2ccc(C#N)cc2)ncc1C#N [Cmpd 194] | 100 to 800 nM
3 | CC1(C)[C@@H](Nc2nc(NCCc3cccc(Cl)c3)ncc2C#N)C[C@H]1C(N)=O [Cmpd 164] | 100 to 800 nM
4 | Cc1ncc(-c2ccc(CCNc3ncc(C#N)c(N[C@@H]4C[C@H](O)C4(C)C)n3)cc2)s1 [Cmpd 124] | 100 to 800 nM
5 | CN1CCN(S(=O)(=O)c2ccc(CCNc3ncc(C#N)c(N[C@@H]4CC[C@H](O)C(C)(C)C4)n3)cc2)CC1 [Cmpd 179] | 100 to 800 nM
6 | CC1(C)[C@@H](N)C[C@H]1Nc1nc(NCCc2cccc(Cl)c2)ncc1C#N [Cmpd 160] | 800 to 2000 nM
7 | CC1(C)[C@@H](C(N)=O)C[C@H]1Nc1nc(NCCc2cccc(Cl)c2)ncc1C#N [Cmpd 165] | < 100 nM
8 | CC1(C)[C@@H](O)C[C@H]1Nc1nc(NCCc2ccc(C(F)(F)F)cc2)ncc1C#N [Cmpd 46] | 800 to 2000 nM
9 | CC1(C)C[C@@H](Nc2nc(NCC(O)c3ccc(OC(F)F)cc3)ncc2C#N)CC[C@H]1O (stereo partly drawn) [Cmpd 50] | 2000 to 10000 nM
10 | CC1(C)[C@@H](O)C[C@H]1Nc1nc(NCCc2ccccc2C(F)(F)F)ncc1C#N [Cmpd 44] | 100 to 800 nM
11 | CC1(C)[C@@H](O)C[C@H]1Nc1nc(NCCc2ccccc2OC(F)F)ncc1C#N [Cmpd 136] | 100 to 800 nM
12 | CC1(C)[C@@H](O)C[C@H]1Nc1nc(NCCc2ccc(O)cc2)ncc1C#N [Cmpd 84] | 100 to 800 nM
13 | Cc1nnnn1-c1cccc(CCNc2ncc(C#N)c(N[C@@H]3CC[C@H](O)C(C)(C)C3)n2)c1 [Cmpd 169] | 100 to 800 nM
14 | CC1(C)[C@@H](O)C[C@H]1Nc1nc(NCCc2ccc(S(N)(=O)=O)cc2)ncc1C#N [Cmpd 113] | 100 to 800 nM
15 | CC(F)(F)COc1ccc(CCNc2ncc(C#N)c(N[C@@H]3CC[C@H](O)C(C)(C)C3)n2)cc1 [Cmpd 151] | < 100 nM
16 | CC1(C)C[C@H](Nc2nc(NCCc3cc(C(F)(F)F)cc(C(F)(F)F)c3)ncc2C#N)CC[C@@H]1O [Cmpd 54] | 800 to 2000 nM
17 | CC1(C)[C@@H](CO)C[C@H]1Nc1nc(NCCc2cccc(Cl)c2)ncc1C#N [Cmpd 74] | < 100 nM
18 | N#Cc1ccc(CCNc2ncc(C#N)c(N[C@H]3C[C@@H](C(N)=O)C3)n2)cc1 [Cmpd 192] | 2000 to 10000 nM
19 | CC(C)(CO)Nc1nc(NCc2cnccc2C(F)(F)F)ncc1C#N [Cmpd 15] | 100 to 800 nM

The next lines start with the values.

Row | IC50 | SMILES
20 | 800 to 2000 nM | CC1(C)C[C@H](Nc2nc(NCCc3ccc(C(=O)O)cc3)ncc2C#N)CC[C@@H]1O [Cmpd 153]
21 | 2000 to 10000 nM | Cc1ccccc1CNc1ncc(C#N)c(N[C@H]2CC[C@@H](O)CC2)n1 [Cmpd 19]
22 | 100 to 800 nM | CC1(C)C[C@H](Nc2nc(NCCc3cccc(Cl)c3C(F)(F)F)ncc2C#N)CC[C@@H]1O [Cmpd 182]
23 | < 100 nM | Cc1nnnn1-c1ccccc1CNc1ncc(C#N)c(NC2CCC(O)C(C)(C)C2)n1 (stereo not drawn) [Cmpd 1]
24 | < 100 nM | N#Cc1cnc(NCc2cc(F)ccc2C(F)(F)F)nc1N[C@H]1CC[C@@H](O)CC1 [Cmpd 3]
25 | 800 to 2000 nM | N#Cc1ccc(CCNc2ncc(C#N)c(N[C@H]3CC[C@@H](O)CC3)n2)cc1 [Cmpd 73]
26 | 100 to 800 nM | CC1(C)C[C@H](Nc2nc(NCCc3ccc(C(F)(F)F)cc3)ncc2C#N)CC[C@@H]1O [Cmpd 99]
27 | < 100 nM | CC1(C)C[C@H](Nc2nc(NCCc3cc(Cl)ccc3F)ncc2C#N)CC[C@@H]1O [Cmpd 89]
28 | < 100 nM | CC1(C)C[C@H](Nc2nc(NCCc3ccc(OCCF)cc3)ncc2C#N)CC[C@@H]1O [Cmpd 171]
29 | 800 to 2000 nM | CC1(C)C[C@H](Nc2nc(NCCc3cccc(C#N)c3)ncc2C#N)CC[C@@H]1O [Cmpd 166]
30 | 100 to 800 nM | CN(C)S(=O)(=O)c1ccc(CCNc2ncc(C#N)c(N[C@@H]3CC[C@H](O)C(C)(C)C3)n2)cc1 [Cmpd 175]
31 | 100 to 800 nM | CC1(C)C[C@H](O)CC[C@H]1Nc1nc(NCCc2cccc(Cl)c2)ncc1C#N [Cmpd 188]
32 | < 100 nM | N#Cc1cnc(NCCc2ccc(-n3ccnc3)c(F)c2)nc1N[C@H]1CC[C@@H](C(N)=O)CC1 [Cmpd 195]
33 | 2000 to 10000 nM | CC1(C)C[C@@H](O)CC[C@@H]1Nc1nc(NCCc2cccc(Cl)c2)ncc1C#N [Cmpd 187]
34 | 800 to 2000 nM | CC1(C)C[C@H](O)CC[C@@H]1Nc1nc(NCCc2cccc(Cl)c2)ncc1C#N [Cmpd 189]
35 | 2000 to 10000 nM | CCOc1cccc(F)c1CNc1ncc(C#N)c(N[C@H]2CC[C@@H](O)CC2)n1 [Cmpd 23]
36 | 2000 to 10000 nM | Cc1nnnn1-c1ccccc1CNc1ncc(C#N)c(N[C@H]2CC[C@@H](O)C(C)(C)C2)n1 [Cmpd 25]
37 | 800 to 2000 nM | N#Cc1cnc(NCc2ccccc2OC(F)(F)F)nc1N[C@H]1CC[C@@H](O)CC1 [Cmpd 17]
38 | 100 to 800 nM | CC1(C)C[C@H](Nc2nc(NCCc3ccc(S(=O)(=O)N4CCC4)cc3)ncc2C#N)CC[C@@H]1O [Cmpd 176]
39 | 100 to 800 nM | CC1(C)C[C@H](Nc2nc(NCCc3ccccc3OC(F)(F)F)ncc2C#N)CC[C@@H]1O [Cmpd 55]
40 | 100 to 800 nM | N#Cc1cnc(NCc2ccccc2OC(F)F)nc1N[C@H]1CC[C@@H](O)CC1 [Cmpd 4]
41 | 100 to 800 nM | CC1(C)C[C@H](Nc2nc(NCCc3ccc(C#N)c(Cl)c3)ncc2C#N)CC[C@@H]1O [Cmpd 139]
42 | 100 to 800 nM | N#Cc1cnc(NCCc2cccc(Cl)c2)nc1N[C@H]1CC[C@@H](O)CC1 [Cmpd 68]
43 | 100 to 800 nM | CC1(C)C[C@H](Nc2nc(NCCc3ccc(F)cc3F)ncc2C#N)CC[C@@H]1O [Cmpd 197]

Same assay, conditions: read-out: Act. Level (IC50 in the PKC-theta Assay)

Row | SMILES | IC50
44 | O[C@H]1CC[C@@H](Nc2nc(NCc3cncnc3C(F)(F)F)ncc2C(F)(F)F)CC1 [Cmpd 81] | < 100 nM
45 | CC(F)(F)c1ncncc1CNc1ncc(C#N)c(N[C@@H]2CC[C@H](O)C(C)(C)C2)n1 [Cmpd 36] | < 100 nM
46 | CC(F)(F)COc1ncncc1CNc1ncc(C(F)(F)F)c(N[C@@H]2CC[C@H](O)C(C)(C)C2)n1 [Cmpd 29] | < 100 nM
47 | CC1(C)[C@@H](O)C[C@H]1Nc1nc(NCc2cncnc2-c2ccc(F)cc2)ncc1C#N [Cmpd 79] | < 100 nM
48 | CC(F)(F)COc1ncncc1CNc1ncc(C#N)c(NC2C[C@@H](O)C2(C)C)n1 (stereo partly drawn) [Cmpd 88] | < 100 nM
49 | CC(F)(F)COc1ncncc1CNc1ncc(C#N)c(N[C@@H]2C[C@H](O)C2(C)C)n1 [Cmpd 16] | < 100 nM
50 | C[C@]1(O)CC[C@@H](Nc2nc(NCc3cnccc3C(F)(F)F)ncc2C(F)(F)F)CC1 [Cmpd 46] | < 100 nM
51 | CC1(C)[C@H](O)C[C@@H]1Nc1nc(NCc2cncnc2OCCC(F)(F)F)ncc1C#N [Cmpd 89] | < 100 nM
52 | CC1(C)C[C@H](Nc2nc(NCc3c[n+]([O-])ccc3C(F)(F)F)ncc2C(F)(F)F)CC[C@@H]1O [Cmpd 40] | < 100 nM
53 | CC1(C)[C@@H](O)C[C@H]1Nc1nc(NCc2cncnc2C(F)(F)F)ncc1C#N [Cmpd 61] | < 100 nM
54 | CC1(C)C[C@H](Nc2nc(NCc3cncnc3OCCF)ncc2C#N)CC[C@@H]1O [Cmpd 21] | < 100 nM
55 | CC1(C)[C@H](O)C[C@H]1Nc1nc(NCc2c[n+]([O-])ccc2C(F)(F)F)ncc1C(F)(F)F [Cmpd 105] | 100 to 800 nM
56 | CC(F)(F)COc1ncncc1CNc1ncc(C(F)(F)F)c(N[C@@H]2C[C@H](O)C2(C)C)n1 [Cmpd 13] | < 100 nM
57 | C[C@@H]1CC[C@@H](Nc2nc(NCc3cncnc3OCC(C)(F)F)ncc2C#N)C[C@H]1O [Cmpd 157] | 100 to 800 nM
58 | Cc1cc(C(F)(F)F)c(CNc2ncc(C(F)(F)F)c(N[C@@H]3CC[C@H](O)C(C)(C)C3)n2)c[n+]1[O-] [Cmpd 55] | < 100 nM
59 | CC1(C)C[C@H](Nc2nc(NCCc3ncon3)ncc2C#N)CC[C@@H]1O [Cmpd 191] | 2000 to 10000 nM
60 | C[C@]1(O)CC[C@@H](Nc2nc(NCc3cncnc3-c3ccccc3)ncc2C#N)CC1 [Cmpd 84] | < 100 nM
61 | CC1(C)[C@H](O)C[C@@H]1Nc1nc(NCc2c[n+]([O-])ccc2C(F)(F)F)ncc1C(F)(F)F [Cmpd 136] | 100 to 800 nM
62 | CC1(C)[C@@H](Nc2nc(NCc3cnccc3C(F)(F)F)ncc2C(F)(F)F)C[C@@H]1O [Cmpd 143] | 800 to 2000 nM
63 | CC1(C)[C@@H](O)C[C@H]1Nc1nc(NCc2cncnc2OCCC(F)(F)F)ncc1C(F)(F)F [Cmpd 2] | < 100 nM
64 | CNC(=O)[C@H]1CC[C@@H](Nc2nc(NCc3cnccc3C(F)(F)F)ncc2C(F)(F)F)CC1 [Cmpd 17] | < 100 nM
65 | CC1(C)[C@H](O)C[C@H]1Nc1nc(NCc2cncnc2-c2ccc(F)cc2)ncc1C#N [Cmpd 93] | 100 to 800 nM
66 | CC1(C)C[C@H](Nc2nc(NCc3cncnc3OCCC(F)(F)F)ncc2C#N)CC[C@@H]1O [Cmpd 6] | < 100 nM
67 | CC1(C)C[C@H](Nc2nc(NCc3cncnc3OCC(F)F)ncc2C#N)CC[C@@H]1O [Cmpd 34] | < 100 nM
68 | CC(F)(F)COc1ncncc1CNc1ncc(C#N)c(NC23CCC(O)(CC2)CC3)n1 [Cmpd 156] | 800 to 2000 nM

Other lines, results leading:

Row | IC50 | SMILES
69 | 800 to 2000 nM | N#Cc1cnc(NCCc2c[nH]c3cc(F)ccc23)nc1N[C@H]1CC[C@@H](O)CC1 [Cmpd 165]
70 | 100 to 800 nM | N#Cc1cnc(NCCC2C(=O)Nc3ccccc32)nc1N[C@H]1CC[C@@H](O)CC1 (stereo partly drawn) [Cmpd 155]
71 | < 100 nM | N#Cc1cnc(NCc2cnccc2C(F)(F)F)nc1N[C@H]1CC[C@@H](O)CC1 [Cmpd 75]
72 | < 100 nM | Cc1ccc(Oc2ncncc2CNc2ncc(C#N)c(N[C@H]3CC[C@@H](O)CC3)n2)cc1 [Cmpd 26]
73 | < 100 nM | N#Cc1cnc(NCCC2C(=O)Nc3ccccc32)nc1N[C@H]1CC[C@@H](C(N)=O)CC1 (stereo partly drawn) [Cmpd 179]
74 | 2000 to 10000 nM | CC1(C)C[C@H](Nc2nc(NCCc3c[nH]c4ccc(OC(F)(F)F)cc34)ncc2C#N)CC[C@@H]1O [Cmpd 171]
75 | 2000 to 10000 nM | CC1(C)C[C@H](Nc2nc(NCCn3c(=O)[nH]c4ccccc43)ncc2C#N)CC[C@@H]1O [Cmpd 293]
76 | 100 to 800 nM | CC1(C)C[C@H](Nc2nc(NCCC3(O)C(=O)Nc4ccccc43)ncc2C#N)CC[C@@H]1O (stereo partly drawn) [Cmpd 184]
77 | 100 to 800 nM | Cc1cccc2c(CCNc3ncc(C#N)c(N[C@@H]4CC[C@H](O)C(C)(C)C4)n3)c[nH]c12 [Cmpd 172]
78 | 100 to 800 nM | CC1(C)C[C@H](Nc2nc(NCCc3ccco3)ncc2C#N)CC[C@@H]1O [Cmpd 196]
